# Test results: patent US20150250925A1, “[…] TISSUE, […] MODEL AND MANUFACTURING METHOD THEREFOR” (priority 2012, published 2015)
# Columns and labels:
# Format in all cases: cell-based, human
# [1] = test system: dermal tissue layer with NHDF, NHDMEC and MoDC; assay: CLSM observation of dermal tissue layer of Reference Example 2 after LPS addition; settings: 1 μg/ml LPS, 30 hours after addition; FIG. 5
# Experimental: NHDF coated cells were seeded and cultured so that the NHDF were arranged in 4 layers. Then, NHDMEC (human dermal microvascular endothelial cells) coated cells were seeded and cultured on top of the NHDF layers so that the NHDMEC were arranged in 1 layer. Moreover, NHDF coated cells were seeded and cultured on the NHDMEC layer so that the NHDF were arranged in 4 layers. These layered cells were cultured in 2.3 ml of DMEM containing 10% FBS for 3 days. Subsequently, 5×10^4 MoDC were seeded and cultured in 2.3 ml of DMEM containing 10% FBS for 1 day. Thus, a dermal tissue layer was formed. The dermal tissue layer was placed in the insert, to which 1 μg/ml LPS was added. The dermal tissue layer was observed by a confocal laser scanning microscope for 30 hours.
# FIG. 5 is an example of a confocal laser scanning microscope (CLSM) image taken 30 hours after the addition of the LPS. […] Although the details of this are not clear, it is known that the dendritic cells are transferred to the lymphatic vessels when they are activated by an antigen in a living body. […] Moreover, it has been reported that, in a living body, a CC chemokine receptor 7 is expressed in the activated dendritic cells, while CC chemokine ligands 21, 19, which are ligands of the CC chemokine receptor 7, are produced in the lymphatic vessels. […]
# [2] = test system: artificial skin model including the epidermal layer; assay: Immune response evaluation: IL-6 ELISA after LPS addition, artificial skin model of Example 4; settings: LPS 0-1000 ng/ml, 24 hours, FIG. 4
# Experimental: (§1) A dermal tissue layer including dendritic cells was prepared in the same manner as Example 1. The culture medium of the dermal tissue layer was changed to DMEM containing 10% FBS (the inside of the insert: 30 μl, the outside of the insert: 1 ml). Lipopolysaccharide (LPS, produced by Sigma-Aldrich Co. LLC.) was added to the inside of the insert and incubated for 24 hours. Then, all the culture medium in the outside of the insert was collected, and interleukin (IL)-6 was quantified by enzyme-linked immunosorbent assay (ELISA (R & D, D6056)). The concentration of the lipopolysaccharide was 0, 1, 10, 100, or 1000 ng/ml.
# First, a dermal tissue layer was prepared in the same manner as Example 1 and immersed in a 50 mM Tris-HCl solution (pH=7.4) containing collagen IV for 20 minutes, so that the dermal tissue layer was coated with collagen W Then, 1.8×10^5 KC were seeded and cultured in an adherent culture medium for 2 days. Subsequently, the KC were exposed to the air-liquid interface of a keratinized medium (multi-layered medium) for 7 days to induce differentiation, and thus an artificial skin model was prepared.
# Using the artificial skin model, an immune response was evaluated in the same manner as Reference Example 1. […] FIG. 4 is an example of a graph showing the relationship between the amount of LPS added and the amount of IL-6 produced from the dermal tissue layer. […]
# [3] = test system: dermal tissue layer (without dendritic cells); assay: Immune response evaluation: IL-6 ELISA after LPS addition, dermal tissue layer without dendritic cells; settings: LPS 0, 1, 10, 100 or 1000 ng/ml, 24 hours; layer does not include dendritic cells; FIG. 3
# Experimental: as §1
# A dermal tissue layer (without dendritic cells) was prepared in the same manner as Example 1 except that “only the NHDF coated cells” were used instead of “a mixture of the NHDF coated cells and the MoDC coated cells”. Using the dermal tissue layer, an immune response was evaluated in the same manner as described above.
# (§2) FIG. 3 is an example of a graph showing the relationship between the amount of LPS added and the amount of IL-6 produced from the dermal tissue layer.
# [4] = test system: dermal tissue layer including dendritic cells; assay: Immune response evaluation: IL-6 ELISA after LPS addition, dermal tissue layer including dendritic cells; settings: 24 hours, FIG. 3
# Experimental: as §1, §2
substance,measurement,setting,value
Lipopolysaccharide [LPS],overlap between dendritic cells and NHDMEC (CLSM image),[1],state of overlap between the dendritic cells and the NHDMEC after the addition of the LPS is observed
same,amount of IL-6 produced,[2],does not change with the amount of LPS added
same,amount of IL-6 produced from the dermal tissue layer,[3],increases with an increase in the amount of LPS added
same,amount of IL-6 produced from the dermal tissue layer,"[4]; LPS 0, 1, 10, 100 or 1000 ng/ml, layer includes dendritic cells",increases with an increase in the amount of LPS added
same,"amount of IL-6 produced, layer with dendritic cells compared to layer without",[4]; LPS 0-1000 ng/ml,increases significantly
